The subject of this assay is CuFi-4 (ΔF508/G551D) epithelia. Briefly: ASL pH in CuFi-4 epithelia. It counts as cell-based, human. Here is the method: Airway surface liquid (ASL) pH assay. ASL pH was studied using an established fluorescent dye assay using the Dextran, SNARF®-1, 70,000 MW ratiometric dye (Thermo Fisher D3304). Mature, differentiated CuFi-1 (ATCC CRL-4013) epithelial monolayers were grown on Corning Costar 0.4 μm Transwell Clear Polyester Membrane cell culture inserts (Corning 3470). CuFi epithelia were treated with perfluorinated hydrocarbon (PFC) vehicle, AmB, AmB:Chol or Chol and incubated for the time course of the experiment at 37° C. On the day of imaging, 100 μL of a suspension of SNARF-dextran in PFC was added to the apical side of the monolayers. Monolayers were imaged 2 hours after dye addition. The monolayers were placed on 100 μL of Ultroser G media on a 10 mm glass bottom Fluorodish for imaging (World Precision Instruments). Five images per membrane were taken on a Zeiss LSM 880 confocal microscope at 40× water immersion. These images were analyzed using ImageJ to determine the green to red ratio of each image. Solutions of known pH were used to calibrate pH detection using this system.
Ivacaftor is a clinically approved and effective drug to treat cystic fibrosis, and it was used as a control in some of the experiments. […]

Each structure is given as a SMILES string.

As for `C[C@@H]1[C@H](O)[C@@H](C)/C=C/C=C/C=C/C=C/C=C/C=C/C=C/[C@H](O[C@@H]2O[C@H](C)[C@@H](O)[C@H](N)[C@@H]2O)C[C@@H]2O[C@](O)(C[C@@H](O)C[C@@H](O)[C@H](O)CC[C@@H](O)C[C@@H](O)CC(=O)O[C@H]1C)C[C@H](O)[C@H]2C(=O)O` [AmB, amphotericin B], the “effect on ASL pH” value is “increase ASL pH”.
